Several values for one entry are separate records, joined by “and”; a condition that tells them apart may be missing. Equal entries are not always repeated. Toxic doses and inconclusive results are not listed. No stated cut-off is given here; in the data, active means T/C of 150% or more; inactive means T/C below 125%.
System: L1210 leukemia ip in BDF1 mice, survival T/C
Assay: NCI In Vivo Anticancer Drug Screen. Data for tumor model L1210 Leukemia (intraperitoneal) in B6D2F1 (BDF1) mice
Conditions: endpoint: mean survival time, higher = longer survival
In short: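 Tumor was transplanted into mice, which were then dosed with test compound or vehicle alone. Survival was recorded for each group, and the treated figure was expressed relative to the control figure.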

[1] = dose: 100.0 mg/kg/injection, schedule: Q01DX009 (ip), vehicle: Klucel (hydroxypropylcellulose) (HPC)
[2] = dose: 100.0 mg/kg/injection, schedule: Q04DX003 (ip), vehicle: saline
[3] = dose: 200.0 mg/kg/injection, schedule: Q01DX009 (ip), vehicle: Klucel (hydroxypropylcellulose) (HPC)
[4] = dose: 200.0 mg/kg/injection, schedule: Q04DX003 (ip), vehicle: saline
[5] = dose: 400.0 mg/kg/injection, schedule: Q01DX009 (ip), vehicle: Klucel (hydroxypropylcellulose) (HPC)
[6] = dose: 400.0 mg/kg/injection, schedule: Q04DX003 (ip), vehicle: saline
[7] = dose: 100.0 mg/kg/injection, schedule: Q01DX001 (ip), vehicle: saline
[8] = dose: 200.0 mg/kg/injection, schedule: Q01DX001 (ip), vehicle: saline
[9] = dose: 400.0 mg/kg/injection, schedule: Q01DX001 (ip), vehicle: saline
[10] = dose: 50.0 mg/kg/injection, schedule: Q01DX001 (ip), vehicle: carboxymethylcellulose (CMC)
[11] = dose: 100.0 mg/kg/injection, schedule: Q01DX001 (ip), vehicle: carboxymethylcellulose (CMC)
[12] = dose: 200.0 mg/kg/injection, schedule: Q01DX001 (ip), vehicle: carboxymethylcellulose (CMC)
[13] = dose: 400.0 mg/kg/injection, schedule: Q01DX001 (ip), vehicle: carboxymethylcellulose (CMC)
[14] = dose: 100.0 mg/kg/injection, schedule: Q04DX003 (ip), vehicle: saline with Tween-80
[15] = dose: 200.0 mg/kg/injection, schedule: Q04DX003 (ip), vehicle: saline with Tween-80
[16] = dose: 400.0 mg/kg/injection, schedule: Q04DX003 (ip), vehicle: saline with Tween-80
[17] = dose: 100.0 mg/kg/injection, schedule: Q04DX003 (ip), vehicle: Klucel (hydroxypropylcellulose) (HPC)
[18] = dose: 200.0 mg/kg/injection, schedule: Q04DX003 (ip), vehicle: Klucel (hydroxypropylcellulose) (HPC)
[19] = dose: 400.0 mg/kg/injection, schedule: Q04DX003 (ip), vehicle: Klucel (hydroxypropylcellulose) (HPC)
[20] = dose: 50.0 mg/kg/injection, schedule: Q01DX001 (ip), vehicle: saline
[21] = dose: 100.0 mg/kg/injection, schedule: Q04DX002 (ip), vehicle: saline with Tween-80
[22] = dose: 200.0 mg/kg/injection, schedule: Q04DX002 (ip), vehicle: saline with Tween-80
[23] = dose: 100.0 mg/kg/injection, schedule: Q01DX009 (ip), vehicle: saline with Tween-80
[24] = dose: 200.0 mg/kg/injection, schedule: Q01DX009 (ip), vehicle: saline with Tween-80
[25] = dose: 400.0 mg/kg/injection, schedule: Q01DX009 (ip), vehicle: saline with Tween-80
[26] = dose: 100.0 mg/kg/injection, schedule: Q04DX002 (ip), vehicle: Klucel (hydroxypropylcellulose) (HPC)
[27] = dose: 200.0 mg/kg/injection, schedule: Q04DX002 (ip), vehicle: Klucel (hydroxypropylcellulose) (HPC)
[28] = dose: 400.0 mg/kg/injection, schedule: Q04DX002 (ip), vehicle: Klucel (hydroxypropylcellulose) (HPC)
[29] = dose: 100.0 mg/kg/injection, schedule: Q01DX001 (ip), vehicle: saline with Tween-80
[30] = dose: 200.0 mg/kg/injection, schedule: Q01DX001 (ip), vehicle: saline with Tween-80

Measured: T/C

CNS(=O)(=O)c1ccc(C)cc1
inactive: [1] 104 % of control | [2] 102 % of control | [3] 108 % of control | [4] 100 % of control | [5] 108 % of control | [6] 122 % of control

CC(O)CN(Cc1c(O)ccc2ccccc12)CC(C)OS(C)(=O)=O (configuration not stated)
inactive: [7] 97 % of control | [8] 93 % of control | [9] 95 % of control

COc1ccccc1CN1CCCOP1(=O)Nc1ccccc1C (configuration not stated)
inactive: [10] 109 % of control | [11] 93 % of control | [12] 96 % of control | [13] 91 % of control

N=C(N)SCc1ccc(Br)cc1
inactive: [7] 104 % of control | [8] 112 % of control

CC(=O)OCc1cccnc1
inactive: [14] 95 % of control | [15] 94 % of control | [16] 97 % of control

CN(C)C(=O)Sc1ccc([N+](=O)[O-])cc1Cl
inactive: [17] 107 % of control | [18] 101 % of control | [19] 101 % of control

Cc1nc2ncnc(Cl)c2[nH]1
inactive: [7] 103 % of control | [8] 106 % of control | [9] 100 % of control

Cc1ccc(S(=O)(=O)OCCN(CCOS(=O)(=O)c2ccc(C)cc2)c2ccc(N=O)cc2)cc1
inactive: [20] 115 % of control | [7] 124 % of control

O=P1(Nc2ccc(Cl)cc2)OCC2(CO1)COP(=O)(Nc1ccc(Cl)cc1)OC2 (configuration not stated)
inactive: [20] 98 % of control | [7] 93 % of control | [8] 101 % of control | [9] 117 % of control

CCSC(SCC)C(OC(C)=O)C(OC(C)=O)C(OC(C)=O)C(COC(c1ccccc1)(c1ccccc1)c1ccccc1)OC(C)=O (configuration not stated)
inactive: [21] 101 % of control | [22] 89 % of control

COC1C(O)C(O)C(O)C(O)C1OS(=O)(=O)c1ccc(C)cc1 (configuration not stated)
inactive: dose: 375.0 mg/kg/injection, schedule: Q01DX001 (ip), vehicle: carboxymethylcellulose (CMC) 105 % of control | dose: 750.0 mg/kg/injection, schedule: Q01DX001 (ip), vehicle: carboxymethylcellulose (CMC) 107 % of control | dose: 1500.0 mg/kg/injection, schedule: Q01DX001 (ip), vehicle: carboxymethylcellulose (CMC) 98 % of control

CC(C)(O)c1ccccc1
inactive: [7] 105 % of control | [23] 88 % of control | [14] 93 % of control | [8] 100 % of control | [24] 90 % of control | [15] 89 % of control | [9] 103 % of control | [25] 92 % of control | [16] 91 % of control

CC1NC(c2ccccc2)N(C(Cc2ccccc2)C(=O)O)C1=O (configuration not stated)
inactive: [20] 94 % of control | [7] 89 % of control | [8] 99 % of control

COc1ccc2c(c1)C(CO)c1ccc(Cl)cc1N2 (configuration not stated)
inactive: [14] 93 % of control | [15] 96 % of control | [16] 94 % of control

S=C(Nc1cccc(Cl)c1)Nc1cccc(Cl)c1
inactive: [14] 94 % of control | [15] 97 % of control

Cn1c(=O)c2c(ncn2CN2CCOCC2)n(C)c1=O
inactive: dose: 75.0 mg/kg/injection, schedule: Q01DX001 (ip), vehicle: saline 100 % of control | dose: 150.0 mg/kg/injection, schedule: Q01DX001 (ip), vehicle: saline 100 % of control

CC(=O)Oc1cc2c[n+](C)c3c4cc(OC(C)=O)c(OC(C)=O)cc4ccc3c2cc1OC(C)=O
inactive: dose: 20.0 mg/kg/injection, schedule: Q01DX009 (ip), vehicle: saline 101 % of control | dose: 40.0 mg/kg/injection, schedule: Q01DX009 (ip), vehicle: saline 109 % of control | dose: 80.0 mg/kg/injection, schedule: Q01DX009 (ip), vehicle: saline 104 % of control | dose: 120.0 mg/kg/injection, schedule: Q01DX009 (ip), vehicle: saline 91 % of control

COc1ccc(-c2nc3ncnc(N)c3[nH]2)cc1
inactive: dose: 12.5 mg/kg/injection, schedule: Q01DX001 (ip), vehicle: saline with Tween-80 102 % of control | dose: 25.0 mg/kg/injection, schedule: Q01DX001 (ip), vehicle: saline with Tween-80 109 % of control | dose: 50.0 mg/kg/injection, schedule: Q01DX001 (ip), vehicle: saline with Tween-80 106 % of control

CC(=O)OC1CCC2(C)C(=CC=C3C2CCC2(C)C3CCC2C(C)/C=C/C(C)C(C)C)C1 (configuration not stated)
inactive: dose: 100.0 mg/kg/injection, schedule: Q04DX002 (sc), vehicle: saline with Tween-80 97 % of control | [17] 93 % of control | dose: 200.0 mg/kg/injection, schedule: Q04DX002 (sc), vehicle: saline with Tween-80 97 % of control | [18] 96 % of control | dose: 400.0 mg/kg/injection, schedule: Q04DX002 (sc), vehicle: saline with Tween-80 97 % of control | [19] 93 % of control

O=S1(=O)CC(Cl)(Br)C1 (tested in a mixture with another compound)
inactive: [26] 94 % of control | [27] 97 % of control | [28] 89 % of control

FC(F)(F)c1ccccc1NC(=S)N(Cc1ccccc1)Cc1ccccc1
inactive: [1] 92 % of control | [26] 110 % of control | [3] 103 % of control | [27] 92 % of control | [5] 96 % of control | [28] 100 % of control

O=C(Oc1ccccc1)c1cc(Br)ccc1O
inactive: [11] 97 % of control | [12] 95 % of control | [13] 100 % of control

O=C(NCCN1CCCC1)NC1CCCCC1
inactive: [1] 101 % of control | [3] 98 % of control

CCCCCCCCCCCC(=O)NC(=S)Nc1ccc(C(=O)O)cc1
inactive: [29] 103 % of control | [23] 98 % of control and 101 % of control | [21] 102 % of control and 105 % of control | [14] 101 % of control | [30] 102 % of control | [24] 93 % of control and 103 % of control | [22] 100 % of control and 112 % of control | [15] 98 % of control | dose: 400.0 mg/kg/injection, schedule: Q01DX001 (ip), vehicle: saline with Tween-80 96 % of control | [25] 101 % of control and 92 % of control | dose: 400.0 mg/kg/injection, schedule: Q04DX002 (ip), vehicle: saline with Tween-80 103 % of control and 115 % of control | [16] 101 % of control

O=C1c2ccccc2-c2cc(Br)c([N+](=O)[O-])cc21
inactive: [10] 93 % of control | [11] 96 % of control | [12] 86 % of control | [13] 88 % of control

COC(=O)C(NC(=O)C(C)NC(=O)OC(C)(C)C)C(C)O (configuration not stated)
inactive: [7] 101 % of control | [8] 99 % of control | [9] 101 % of control

CCCCC(/C=N\NC(=O)c1ccc[n+](C)c1)=C/c1ccccc1
inactive: [29] 96 % of control | [30] 102 % of control

CC(=O)Nc1c(O)c(Cl)c(Cl)c(Cl)c1Cl
inactive: [2] 105 % of control | [4] 101 % of control | [6] 94 % of control

Cc1ccc(S(=O)(=O)NCCN)cc1
inactive: [2] 97 % of control | [4] 97 % of control

Cc1ccc(S(=O)(=O)OC2COCOC2C2(OS(=O)(=O)c3ccc(C)cc3)COCOC2)cc1 (configuration not stated)
inactive: [26] 101 % of control | [27] 101 % of control | [28] 104 % of control

O=C1CC2CC(=O)CC2C1 (configuration not stated)
inactive: dose: 100.0 mg/kg/injection, schedule: Q01DX001 (ip), vehicle: Klucel (hydroxypropylcellulose) (HPC) 104 % of control | [2] 105 % of control | dose: 200.0 mg/kg/injection, schedule: Q01DX001 (ip), vehicle: Klucel (hydroxypropylcellulose) (HPC) 97 % of control | dose: 200.0 mg/kg/injection, schedule: Q01DX009 (ip), vehicle: saline 90 % of control | [4] 105 % of control | dose: 400.0 mg/kg/injection, schedule: Q01DX001 (ip), vehicle: Klucel (hydroxypropylcellulose) (HPC) 98 % of control | [6] 94 % of control
